Results as given in article PMC5040732, “Development of a Novel Quantitative Structure-Activity Relationship Model to Accurately Predict Pulmonary Absorption and Replace Routine Use of the Isolated Perfused Respiring Rat Lung Model” (Pharmaceutical Research, 2016).
Marks after values point to notes of the source that are not given here.

Legend:
[1] = isolated perfused respiring rat lung (IPRLu) model, intratracheal instillation; details: for half-life / recovery at 20 min: male, CD, rat, 100 μL, pH 7.4; for %SDiP: solubilised dose in perfusate at 20 mins; for %TDiP: total dose in perfusate at 20 mins; for recovery at 20 min: isolated perfused respiring rat lung (IPRLu), lungs in situ
Protocol: The IPRLu model, including surgery, dosing and sample collection, was performed by the Laboratory Animal Sciences department at GSK. Methodology was based on that described by Tronde et al. (23;24) but with lungs remaining in situ and intratracheal instillation as the dosing technique. Prior to surgery male CD rats were anaesthetised with intraperitoneal ketamine and medetomidine (Dormitor^TM) at […] and 0.5 ml/kg respectively. In addition, 50U of heparin was administered intravenously via a tail vein. Following confirmation of anaesthesia, the front of the rib cage was removed to access heart and lungs, and the trachea cannulated and secured with a ligature. Respiration was transferred to a positive pressure small animal ventilator (Harvard Apparatus Ltd, Edenbridge, Kent, UK) and maintained at 40 breaths per minute with a tidal volume of 1.8 ml. Following exsanguination, the pulmonary artery and vein were cannulated through incisions in the right and left ventricles in order to isolate the blood pulmonary circulatory system. The rat was then raised and maintained at an angle of 45° using a custom made elevating chamber similar to that described by Brain et al. ([26]). […] After an initial first pass to flush blood from the lung vasculature, the perfusion buffer was then recirculated for approximately 10 minutes to equilibrate and attain the required flow rate. Lungs were visually inspected for leaks and signs of oedema ([27]). Compounds were administered either discretely or co-formulated (2–4 compounds) and experiments were carried out in duplicate. Doses (100 μL) were administered to the trachea slightly above the bifurcation point by introduction of a 50 mm needle Hamilton syringe into the tracheal cannula followed by 3 x 1 ml of air. The tracheal cannula was then reattached to the ventilator and total perfusate was collected over 1 min intervals for 20 mins. Perfusate aliquots (1 ml) were frozen (-20°C) along with terminal lung samples prior to analysis.
Homogenised lung and perfusate samples underwent protein precipitation by addition of a 3-fold excess of acetonitrile containing an internal standard. Following either filtration or centrifugation the resulting filtrate or supernatant was typically dried down under a nitrogen stream and then reconstituted in the mobile phase used for separation by HPLC. Following sample preparation lung and perfusate samples, along with residual dose formulations (pre- and post-centrifugation) were analysed by HPLC tandem mass spectrometry (LC-MS/MS), typically using a generic reverse phase chromatography gradient method with separation on a C18 column (50 x 2.1 mm, 3 μm) and an acidified mobile phase.
The cumulative amount of parent compound crossing the lung into the perfusate by the end of the 20 minute experiment was expressed as % of the total dose or as % of the dose originally in solution (solubilised dose). The relative rate of absorption across the lungs was also calculated, the percentage of the administered dose remaining in the lungs was plotted semilogarithimically against time and the initial rate of absorption expressed as a half-life.

[2] = % of dose in solution in the dose formulation (dose analysis pre- and post-centrifugation); format: physicochemical; details: aqueous dose formulation
Description: All compounds were formulated in an aqueous vehicle, the majority (79%) containing 0.2% Tween 80 in either water or saline. Due to the diverse nature of the molecules investigated, formulations were a mix of solutions and suspensions ranging from <1 to 100% compound in solution. Compound solubility effects were investigated using a tool compound available in three micronised salt forms with varying solubilities. The free base (FB), hydroxynapthoate (HNA) and hydrochloride (HCl) forms were each administered to the IPRLu model at a dose equivalent to 15 μg free base.
Data generated with the IPRLu model on 17 marketed drugs (14 out of 17 designed for inhaled delivery) are shown in Table I. All the compounds display a moderate to high extent of total dose in the perfusate at 20 minutes (10–100%), in keeping with the in-house observation that compounds displaying < <10% carry a high risk of accumulation in the lung upon repeat dosing, which can lead to developability issues and high attrition rates. The marketed compound set can be classified into two groups according to their solubility. The first group are reasonably soluble in the dose formulation (>80% of the parent compound in solution, determined by dose analysis pre- and post-centrifugation) and display similar values for %SDiP and %TDiP. The second group are only partially soluble in the dose formulation (<80% of the parent compound in solution) and therefore display greater values for %SDiP compared to %TDiP.

[3] = other: intratracheal instillation
[4] = solubility in dose vehicle determined post study on a discrete weighing of the compound
[5] = mean (n = 2), range in brackets

## CCC(=O)O[C@]1(C(=O)SCF)[C@H](C)C[C@H]2[C@@H]3C[C@H](F)C4=CC(=O)C=C[C@]4(C)[C@@]3(F)[C@@H](O)C[C@@]21C [Fluticasone Propionate]
[1]; [3]
  half-life: 115 min
[1]; [4]
  %SDiP: 2000^c %
[1]; solubility in dose vehicle determined post study on a discrete weighing of the compound, listed as fluticasone propionate
  %SDiP: > 100%
[1]; [5]
  %TDiP: 10 (10) %
[2]
  % Dose in solution: 0.5%

## C[N+]1(C)[C@@H]2C[C@@H](OC(=O)C(O)(c3cccs3)c3cccs3)C[C@H]1[C@@H]1O[C@@H]12 [Tiotropium Bromide]
[1]
  half-life: 16 min
[1]; [5]
  %TDiP: 61 (59–62) %

## CC(C)[N+]1(C)[C@@H]2CC[C@H]1C[C@@H](OC(=O)C(CO)c1ccccc1)C2 (stereo partly shown) [Ipratropium Bromide]
[2]
  % Dose in solution: 100%

## CCCC1O[C@@H]2C[C@H]3[C@@H]4CCC5=CC(=O)C=C[C@]5(C)[C@H]4[C@@H](O)C[C@]3(C)[C@]2(C(=O)CO)O1 (stereo partly shown) [Budesonide]
[1]; [3]
  recovery at 20 min: 84%
  half-life: 3.3 min
[1]; [5]
  %SDiP: 551 (540–561) %
  %TDiP: 77 (76–79) %
[1]; mean (n = 2), range in brackets, listed as budesonide
  %SDiP: > 100%
[2]
  % Dose in solution: 14%

## CCCc1c2oc(C(=O)O)cc(=O)c2cc2c(=O)cc(C(=O)O)n(CC)c12 [Nedocromil]
[1]; [3]
  recovery at 20 min: 85%
  half-life: 32 min
[1]; [5]
  %SDiP: 125 (83–166) %
  %TDiP: 32 (23–40) %
[1]; mean (n = 2), range in brackets, listed as nedocromil
  %SDiP: > 100%
[2]
  % Dose in solution: 24%

## CC(=O)N[C@H]1[C@H]([C@H](O)[C@H](O)CO)OC(C(=O)O)=C[C@@H]1N=C(N)N [Zanamivir]
[1]; [3]
  recovery at 20 min: 104%
  half-life: 7 min
[1]; [5]
  %TDiP: 100 (100–100) %

## CC1(C)O[C@@H]2C[C@H]3[C@@H]4C[C@H](F)C5=CC(=O)C=C[C@]5(C)[C@H]4[C@@H](O)C[C@]3(C)[C@]2(C(=O)CO)O1 [Flunisolide]
[1]; [3]
  recovery at 20 min: 139%
  half-life: 15 min
[1]; [5]
  %SDiP: 96 (66–126) %
  %TDiP: 41 (28–53) %
[1]; mean (n = 2), range in brackets, listed as flunisolide
  %SDiP: 100%
[2]
  % Dose in solution: 42%

## C[C@@H]1C[C@H]2[C@@H]3C[C@H](F)C4=CC(=O)C=C[C@]4(C)[C@@]3(F)[C@@H](O)C[C@]2(C)[C@@]1(OC(=O)c1ccco1)C(=O)SCF [Fluticasone Furoate]
[1]; [3]
  half-life: 153 min
[1]; [4]
  %SDiP: 300^c %
[1]; solubility in dose vehicle determined post study on a discrete weighing of the compound, listed as fluticasone furoate
  %SDiP: > 100%
[1]; [5]
  %TDiP: 10 (7–12) %
[2]
  % Dose in solution: 3.2%

## C=CC[C@@H]1/C=C(\C)C[C@H](C)C[C@H](OC)[C@H]2O[C@@](O)(C(=O)C(=O)N3CCCC[C@H]3C(=O)O[C@H](/C(C)=C/[C@@H]3CC[C@@H](O)[C@H](OC)C3)[C@H](C)[C@@H](O)CC1=O)[C@H](C)C[C@@H]2OC [Tacrolimus (prograf), Tacrolimus]
[1]; [3]
  half-life: 28 min
[1]; [5]
  %SDiP: 178 (176–180) %
  %TDiP: 38 (38) %
[1]; mean (n = 2), range in brackets, listed as tacrolimus
  %SDiP: > 100%
[2]
  % Dose in solution: 21%

## OCc1cc(C(O)CNCCCCCCOCCCCc2ccccc2)ccc1O (stereo not shown) [Salmeterol]
[1]; [3]
  recovery at 20 min: 69%
  half-life: 146 min
[1]; [5]
  %SDiP: 41 (16–66) %
  %TDiP: 15 (6–24) %
[2]
  % Dose in solution: 36%

## N=C(N)NC(=O)c1nc(Cl)c(N)nc1N [Amiloride]
[1]; [3]
  recovery at 20 min: 81%
  half-life: 8 min
[2]
  % Dose in solution: 100%

## COc1ccc(C[C@@H](C)NC[C@H](O)c2ccc(O)c(NC=O)c2)cc1.COc1ccc(C[C@@H](C)NC[C@H](O)c2ccc(O)c(NC=O)c2)cc1.O=C(O)/C=C/C(=O)O [Formoterol Fumerate]
[1]; lung absorption half-life, mean (n = 2), range in brackets
  Lung T1/2 (mins): 24 (22–26) mins
[1]; only where lung analysis was carried out, mean (n = 2), range in brackets
  Recovery of total dose (%): 73 (70–76) %
[1]; [5]
  %SDiP: 47 (42–52) %
  %TDiP: 47 (42–52) %
[2]
  % Dose in solution: 100%

## CC(C)(C)NCC(O)c1ccc(O)c(CO)c1 (stereo not shown) [Salbutamol]
[1]; [3]
  recovery at 20 min: 78%
[2]
  % Dose in solution: 55%

## CC(C)(O)c1ccccc1CC[C@@H](SCC1(CC(=O)O)CC1)c1cccc(/C=C/c2ccc3ccc(Cl)cc3n2)c1 [Montelukast]
[1]; [3]
  recovery at 20 min: 77%
  half-life: 42 min
[1]; [5]
  %TDiP: 67 (57–78) %
[2]
  % Dose in solution: 73%

## Nc1c(Br)cc(Br)cc1CN[C@H]1CC[C@H](O)CC1 [Ambroxol]
[1]; [3]
  recovery at 20 min: 70%
  half-life: 39 min
[2]
  % Dose in solution: 95%

## CCc1cc2c(cc1CC)CC(NC[C@H](O)c1ccc(O)c3[nH]c(=O)ccc13)C2 [Indacaterol]
[1]; [3]
  recovery at 20 min: 91%
  half-life: 273 min
[1]; [5]
  %SDiP: 12 (12) %
  %TDiP: 11 (10,11) %
[1]; mean (n = 2), range in brackets, listed as indacaterol
  %SDiP: 12%
[2]
  % Dose in solution: 88%

## CCN(CC)CC(=O)Nc1c(C)cccc1C [Lidocaine]
[1]; [4]
  %SDiP: 75^c %
[1]; [5]
  %TDiP: 75 (64–82) %
[2]
  % Dose in solution: 100%
